Experimental data as given in the CheMixHub viscosity set.
“And” between values parts separate entries of the source, which are not always exact repeats. Equal entries are not always repeated.

Assay: xn = mol fraction of the nth substance listed

C1CCOC1 + CCCO
viscosity [mPa·s], 101 kPa
Conditions | 298.15 K | 303 K | 313 K
x1 = 0.0992 | – | 1.22 | 1.04
x1 = 0.1999 | – | 1.08 | 0.9
x1 = 0.2846 | – | 1 | 0.85
x1 = 0.39 | – | 0.91 | 0.77
x1 = 0.5 | 0.7603 | – | –
x1 = 0.5146 | – | 0.8 | 0.69
x1 = 0.5918 | – | 0.73 | 0.65
x1 = 0.7012 | – | 0.64 | 0.57
x1 = 0.8028 | – | 0.57 | 0.51
x1 = 0.894 | – | 0.5 | 0.47
x1 = 0.9761 | – | 0.44 | 0.42

c1ccc2ccccc2c1 + CCCCCC
viscosity
Conditions | 298.15 K | 303.15 K | 308.15 K | 313.15 K | 318.15 K
101 kPa, x1 = 0.09526 | 0.3806 mPa·s | 0.3636 mPa·s | 0.3455 mPa·s | 0.331 mPa·s | 0.3166 mPa·s
101 kPa, x1 = 0.1771 | – | 0.4135 mPa·s | 0.3922 mPa·s | 0.3737 mPa·s | 0.3567 mPa·s
101.33 kPa, x1 = 0.09526 | 0.3806 mPa·s | 0.3636 mPa·s and 0.3636 mPa·s | 0.3455 mPa·s | 0.331 mPa·s | 0.3166 mPa·s and 0.3166 mPa·s
101.33 kPa, x1 = 0.1185 | – | 0.3813 mPa·s | – | – | 0.3268 mPa·s
101.33 kPa, x1 = 0.1464 | – | 0.3926 mPa·s | – | – | 0.3406 mPa·s
101.33 kPa, x1 = 0.1771 | – | 0.4135 mPa·s | – | – | 0.3567 mPa·s
101.33 kPa, x1 = 0.18 | – | 0.4135 mPa·s | 0.3922 mPa·s | 0.3737 mPa·s | 0.3567 mPa·s
101.33 kPa, x1 = 0.2165 | – | – | – | – | 0.3785 mPa·s

CC1COC(=O)O1 (centres undefined) + CO
Conditions | viscosity [mPa·s]
298 K, 101.3 kPa, x1 = 0.0206 | 0.5726
298 K, 101.3 kPa, x1 = 0.0401 | 0.593
298 K, 101.3 kPa, x1 = 0.0604 | 0.6164
298 K, 101.3 kPa, x1 = 0.0808 | 0.6364
298 K, 101.3 kPa, x1 = 0.1018 | 0.6594
298 K, 101.3 kPa, x1 = 0.2016 | 0.7765
298 K, 101.3 kPa, x1 = 0.301 | 0.9078
298 K, 101.3 kPa, x1 = 0.401 | 1.058
298 K, 101.3 kPa, x1 = 0.5016 | 1.229
298 K, 101.3 kPa, x1 = 0.6002 | 1.418
298 K, 101.3 kPa, x1 = 0.7006 | 1.635
298 K, 101.3 kPa, x1 = 0.8004 | 1.877
298 K, 101.3 kPa, x1 = 0.9007 | 2.148
298.15 K, 101.33 kPa, x2 = 0.0512 | 2.266
298.15 K, 101.33 kPa, x2 = 0.0983 | 2.097
298.15 K, 101.33 kPa, x2 = 0.1406 | 1.958
298.15 K, 101.33 kPa, x2 = 0.1883 | 1.811
298.15 K, 101.33 kPa, x2 = 0.2587 | 1.616
298.15 K, 101.33 kPa, x2 = 0.343 | 1.414
298.15 K, 101.33 kPa, x2 = 0.3986 | 1.298
298.15 K, 101.33 kPa, x2 = 0.4723 | 1.167
298.15 K, 101.33 kPa, x2 = 0.5124 | 1.107
298.15 K, 101.33 kPa, x2 = 0.5819 | 1.001
298.15 K, 101.33 kPa, x2 = 0.6762 | 0.8678
298.15 K, 101.33 kPa, x2 = 0.758 | 0.7707
298.15 K, 101.33 kPa, x2 = 0.8297 | 0.6887
298.15 K, 101.33 kPa, x2 = 0.9256 | 0.5981
298.15 K, 101.33 kPa, x2 = 0.9495 | 0.5805
308.15 K, 101.33 kPa, x2 = 0.0512 | 1.895
308.15 K, 101.33 kPa, x2 = 0.0983 | 1.757
308.15 K, 101.33 kPa, x2 = 0.1406 | 1.648
308.15 K, 101.33 kPa, x2 = 0.1883 | 1.533
308.15 K, 101.33 kPa, x2 = 0.2587 | 1.377
308.15 K, 101.33 kPa, x2 = 0.343 | 1.213
308.15 K, 101.33 kPa, x2 = 0.4723 | 1.002
308.15 K, 101.33 kPa, x2 = 0.5124 | 0.948
308.15 K, 101.33 kPa, x2 = 0.5819 | 0.8651
308.15 K, 101.33 kPa, x2 = 0.6762 | 0.7581
308.15 K, 101.33 kPa, x2 = 0.8297 | 0.6034
308.15 K, 101.33 kPa, x2 = 0.8931 | 0.5517
308.15 K, 101.33 kPa, x2 = 0.9256 | 0.5282
308.15 K, 101.33 kPa, x2 = 0.9495 | 0.5118
318.15 K, 101.33 kPa, x2 = 0.0512 | 1.594
318.15 K, 101.33 kPa, x2 = 0.0983 | 1.48
318.15 K, 101.33 kPa, x2 = 0.1406 | 1.393
318.15 K, 101.33 kPa, x2 = 0.1883 | 1.296
318.15 K, 101.33 kPa, x2 = 0.2587 | 1.169
318.15 K, 101.33 kPa, x2 = 0.343 | 1.034
318.15 K, 101.33 kPa, x2 = 0.3986 | 0.9607
318.15 K, 101.33 kPa, x2 = 0.4723 | 0.8683
318.15 K, 101.33 kPa, x2 = 0.5124 | 0.8232
318.15 K, 101.33 kPa, x2 = 0.5819 | 0.7459
318.15 K, 101.33 kPa, x2 = 0.8297 | 0.5281
318.15 K, 101.33 kPa, x2 = 0.8931 | 0.4829
318.15 K, 101.33 kPa, x2 = 0.9256 | 0.4621
318.15 K, 101.33 kPa, x2 = 0.9495 | 0.4486

CC(C)=O + CCO
298.15 K, 101 kPa
Conditions | viscosity [mPa·s]
x1 = 0.1868 | 0.7168
x1 = 0.2337 | 0.651
x1 = 0.3003 | 0.5795
x1 = 0.3162 | 0.5636
x1 = 0.378 | 0.5162
x1 = 0.3887 | 0.5028
x1 = 0.4579 | 0.462
x1 = 0.6529 | 0.3836

O=C([O-])[O-].[K+].[K+] + O
viscosity [mPa·s], 101 kPa
Conditions | 303.15 K | 308.15 K | 313.15 K
x1 = 0.002 | 0.839 | 0.769 | 0.703
x1 = 0.005 | 0.889 | 0.814 | 0.745
x1 = 0.009 | 0.944 | 0.864 | 0.793

c1ccc2ccccc2c1 + Cc1ccc(C)cc1
viscosity [mPa·s], 101.3 kPa
Conditions | x1 = 0.00437 | x1 = 0.00869 | x1 = 0.01249 | x1 = 0.01685 | x1 = 0.01712 | x1 = 0.01715 | x1 = 0.01815 | x1 = 0.02139 | x1 = 0.02569 | x1 = 0.02979
293.15 K | 0.6371 | 0.6386 | 0.6414 | – | – | – | 0.6438 | 0.6483 | 0.65 | 0.6534
298.15 K | 0.5968 | 0.5992 | 0.6012 | – | – | 0.6045 | – | 0.6076 | 0.6102 | 0.6125
313.15 K | 0.5333 | 0.5352 | 0.5363 | – | 0.5405 | – | – | 0.5431 | 0.5447 | 0.5469
323.15 K | 0.476 | 0.4777 | 0.4789 | 0.4818 | – | – | – | 0.4848 | 0.4862 | 0.4879

CCCCCCCCCCCCCCCCC + CCCCCCCCCCO
100 kPa, x1 = 0.076
Conditions | viscosity [mPa·s]
298.2 K | 10.21
308.2 K | 6.94
318.2 K | 4.87

COc1ccccc1 + CCCCO
viscosity [mPa·s]
Conditions | 303 K | 303.15 K | 313 K | 313.15 K | 323 K | 323.15 K
100 kPa, x1 = 0.121 | 1.831 | – | 1.255 | – | 1.031 | –
100 kPa, x1 = 0.236 | 1.534 | – | 1.069 | – | 0.8722 | –
100 kPa, x1 = 0.346 | 1.297 | – | 0.9238 | – | 0.7426 | –
100 kPa, x1 = 0.452 | 1.128 | – | 0.8353 | – | 0.6858 | –
100 kPa, x1 = 0.553 | 1.049 | – | 0.7844 | – | 0.6551 | –
100 kPa, x1 = 0.65 | 0.9984 | – | 0.7302 | – | 0.6131 | –
100 kPa, x1 = 0.742 | 0.9819 | – | 0.7012 | – | 0.5948 | –
100 kPa, x1 = 0.832 | 0.9796 | – | 0.6884 | – | 0.5673 | –
100 kPa, x1 = 0.918 | 0.9769 | – | 0.6724 | – | 0.5517 | –
101.33 kPa, x1 = 0.1002 | – | 1.874 | – | 1.48 | – | 1.165
101.33 kPa, x1 = 0.2 | – | 1.523 | – | 1.254 | – | 0.989
101.33 kPa, x1 = 0.3001 | – | 1.359 | – | 1.075 | – | 0.899
101.33 kPa, x1 = 0.3998 | – | 1.197 | – | 0.975 | – | 0.806
101.33 kPa, x1 = 0.5 | – | 1.079 | – | 0.889 | – | 0.75
101.33 kPa, x1 = 0.6002 | – | 1.001 | – | 0.851 | – | 0.734
101.33 kPa, x1 = 0.7 | – | 0.952 | – | 0.805 | – | 0.721
101.33 kPa, x1 = 0.8003 | – | 0.929 | – | 0.788 | – | 0.709
101.33 kPa, x1 = 0.9 | – | 0.914 | – | 0.772 | – | 0.698
